Like-named read-outs stand apart in the source and are kept apart here.
Test system: BS-C-1 cells
Assay type: cell-based
Conditions: vRG0-infected cells
Procedure: EGFP Expression Levels by vRG0 Were not Repressed Even in the Presence of High Concentrations of TCs: To test whether vRG0 was repressible by TCs, BS-C-1 cells were infected with vRG0 in the presence of increasing concentrations of ATC, TET, or DOX. The cytopathic effect observed by brightfield microscopy 2 days post-infection was indistinguishable from the cytopathic effect observed from cells treated with ATC and 10 μg/ml or less of TET or DOX (data not shown).
Since TCs complexed to MgCl2 bind to the TetR repressor with higher affinity than TCs alone (a commonly used strategy when studying induced conformation of the repressor by x-ray crystallography), ATC was incubated with MgCl2 to allow for complex formation.

[1] = 100 μg/ml, 2 days post-infection

Compound	Cell toxicity [1]	other results
C[C@H]1c2cccc(O)c2C(=O)C2=C(O)[C@]3(O)C(=O)C(C(N)=O)=C(O)[C@@H](N(C)C)[C@@H]3[C@@H](O)[C@@H]21 [DOX, doxycycline]	morphology associated with cell toxicity	–
Cc1c2c(c(O)c3c(O)cccc13)C(=O)[C@]1(O)C(=O)C(C(N)=O)=C(O)[C@@H](N(C)C)[C@@H]1C2 [ATC, anhydrotetracycline]	–	Cell toxicity (lower concentrations than TET and DOX): did not incur any toxicity
CN(C)[C@@H]1C(O)=C(C(N)=O)C(=O)[C@@]2(O)C(O)=C3C(=O)c4c(O)cccc4[C@@](C)(O)[C@H]3C[C@@H]12 [TET, tetracycline]	morphology associated with cell toxicity	–
[Cl-].[Cl-].[Mg+2] [MgCl2]	–	Cell toxicity (100 mM MgCl2 (ATC-MgCl2), 2 days): toxicity-associated morphology

— US20130171189A1, “INDUCIBLE AND REPRESSIBLE VACCINIA VIRUSES WITH IMPROVED SAFETY” (priority 2011, published 2013)
